# Test results as given in patent US20090137572A1, “2-substituted-4-heteroaryl-pyrimidines useful for the treatment of proliferative disorders” (priority 2004, published 2009).
# What was measured:
# GSK3b = GSK3b (Homo sapiens, UniProt P49841); assay: Kinase assay (radioactive phosphate incorporation), GSK-3b; type: biochemical; conditions: read-out: Kinase Inhibition pIC50 GSK-3b (converted)
# Protocol: (§1) Kinase assays. The compounds of the invention above were investigated for their ability to inhibit the enzymatic activity of various protein kinases (Table 2). This was achieved by measurement of incorporation of radioactive phosphate from ATP into appropriate polypeptide substrates. Recombinant protein kinases and kinase complexes were produced or obtained commercially. Assays were performed using 96-well plates and appropriate assay buffers (typically 25 mM β-glycerophosphate, 20 mM MOPS, 5 mM EGTA, 1 mM DTT, 1 mM […], pH 7.4), into which were added 2-4 μg of active enzyme with appropriate substrates. The reactions were initiated by addition of Mg/ATP mix (15 mM MgCl2+100 μM ATP with 30-50 kBq per well of [γ-^32P]-ATP) and mixtures incubated as required at 30° C. Reactions were stopped on ice, followed by filtration through p81 filterplates or GF/C filterplates (Whatman Polyfiltronics, Kent, UK). After washing 3 times with 75 mM aq orthophosphoric acid, plates were dried, scintillant added and incorporated radioactivity measured in a scintillation counter (TopCount, Packard Instruments, Pangbourne, Berks, UK). Compounds for kinase assay were made up as 10 mM stocks in DMSO and diluted into 10% DMSO in assay buffer.
# CDK2-cycline E = CDK2-cycline E (Homo sapiens, UniProt P24941); assay: Kinase assay (radioactive phosphate incorporation), CDK2-cyclin E; type: biochemical; conditions: read-out: Kinase Inhibition pIC50 CDK2-cycline E (converted)
# How it was run: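 Radiometric filter-binding format: recombinant kinase + substrate, pH 7.4 MOPS buffer with EGTA, DTT, vanadate; 100 μM ATP/[γ-32P]-ATP, 15 mM MgCl2; 30° C; stopped on ice, P81 or GF/C filtration, scintillation read.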
# CDK1-cyclin B = CDK1-cyclin B (Homo sapiens, UniProt P06493); assay: Kinase assay (radioactive phosphate incorporation), CDK1-cyclin B; type: biochemical; conditions: read-out: Kinase Inhibition pIC50 CDK1-cyclin B (converted)
# Protocol: as §1
# CDK9/cyclin T1 = CDK9/cyclin T1 (Homo sapiens, UniProt P50750); assay: CDK 9 assay (CTD peptide substrate); type: biochemical; conditions: read-out: Kinase Inhibition pIC50 CDK9-cyclin T1 (converted)
# How it was run: (§2)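 Test compounds were incubated with recombinant human kinase/cyclin complex and CTD peptide substrate for 45 min at 30° C (pH 7.2, 100 μM ATP spiked with 32PγATP, 15 mM MgCl2). Reactions were stopped on ice, avidin was added, and phosphorylated peptide was captured on P81 filters and counted by scintillation.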
# CDK4-cyclin D1 = CDK4-cyclin D1 (Homo sapiens, UniProt P11802); assay: Kinase assay (radioactive phosphate incorporation), CDK4-cyclin D1; type: biochemical; conditions: read-out: Kinase Inhibition pIC50 CDK4-cyclin D1 (converted)
# Protocol: as §1
# CDK7/cyclin H = CDK7/cyclin H (Homo sapiens, UniProt P50613); assay: CDK 7 assay (CTD peptide substrate); type: biochemical; conditions: read-out: Kinase Inhibition pIC50 CDK7-cyclin H (converted)
# How it was run: as §2
# Aurora A kinase = molecular target: T1, Aurora A kinase (Homo sapiens, UniProt O14965); assay: Aurora-A (human) kinase assay (Kemptide substrate); type: biochemical; conditions: pIC50 is -log(IC50, M); 15 μM ATP; read-out: Kinase Inhibition pIC50 Aurora A kinase (converted)
# T1 construct: purchased
# T1 sequence (O14965 1-403): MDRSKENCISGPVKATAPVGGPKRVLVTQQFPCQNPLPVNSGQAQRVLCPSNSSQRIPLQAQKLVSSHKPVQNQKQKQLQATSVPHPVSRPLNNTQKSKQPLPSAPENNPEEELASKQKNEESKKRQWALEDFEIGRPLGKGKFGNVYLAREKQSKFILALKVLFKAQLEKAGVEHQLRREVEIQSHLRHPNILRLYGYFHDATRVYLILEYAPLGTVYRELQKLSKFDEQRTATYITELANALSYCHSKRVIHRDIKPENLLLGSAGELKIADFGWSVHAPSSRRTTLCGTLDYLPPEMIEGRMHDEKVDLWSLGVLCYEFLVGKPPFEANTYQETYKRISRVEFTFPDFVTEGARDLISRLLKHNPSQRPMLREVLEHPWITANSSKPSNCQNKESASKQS
# How it was run: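 Radiometric filter-binding assay: commercial aurora-A kinase (5-10 ng) with 200 μM Kemptide in MOPS/EDTA pH 7.0, started with 10 mM Mg acetate and 15 μM ATP plus [γ-33P]-ATP. Incubated 40 min at room temperature, stopped with phosphoric acid, incorporated 33P counted by scintillation.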
# [1] = molecular target: T2, Flt3 (FMS-like tyrosine kinase-3) (Homo sapiens, UniProt P36888); assay: Kinase assay (radioactive phosphate incorporation), Flt3; type: biochemical; conditions: pIC50 is -log(IC50, M), read-out: Kinase Inhibition pIC50 Flt3 (converted)
# T2 sequence (P36888 27-993): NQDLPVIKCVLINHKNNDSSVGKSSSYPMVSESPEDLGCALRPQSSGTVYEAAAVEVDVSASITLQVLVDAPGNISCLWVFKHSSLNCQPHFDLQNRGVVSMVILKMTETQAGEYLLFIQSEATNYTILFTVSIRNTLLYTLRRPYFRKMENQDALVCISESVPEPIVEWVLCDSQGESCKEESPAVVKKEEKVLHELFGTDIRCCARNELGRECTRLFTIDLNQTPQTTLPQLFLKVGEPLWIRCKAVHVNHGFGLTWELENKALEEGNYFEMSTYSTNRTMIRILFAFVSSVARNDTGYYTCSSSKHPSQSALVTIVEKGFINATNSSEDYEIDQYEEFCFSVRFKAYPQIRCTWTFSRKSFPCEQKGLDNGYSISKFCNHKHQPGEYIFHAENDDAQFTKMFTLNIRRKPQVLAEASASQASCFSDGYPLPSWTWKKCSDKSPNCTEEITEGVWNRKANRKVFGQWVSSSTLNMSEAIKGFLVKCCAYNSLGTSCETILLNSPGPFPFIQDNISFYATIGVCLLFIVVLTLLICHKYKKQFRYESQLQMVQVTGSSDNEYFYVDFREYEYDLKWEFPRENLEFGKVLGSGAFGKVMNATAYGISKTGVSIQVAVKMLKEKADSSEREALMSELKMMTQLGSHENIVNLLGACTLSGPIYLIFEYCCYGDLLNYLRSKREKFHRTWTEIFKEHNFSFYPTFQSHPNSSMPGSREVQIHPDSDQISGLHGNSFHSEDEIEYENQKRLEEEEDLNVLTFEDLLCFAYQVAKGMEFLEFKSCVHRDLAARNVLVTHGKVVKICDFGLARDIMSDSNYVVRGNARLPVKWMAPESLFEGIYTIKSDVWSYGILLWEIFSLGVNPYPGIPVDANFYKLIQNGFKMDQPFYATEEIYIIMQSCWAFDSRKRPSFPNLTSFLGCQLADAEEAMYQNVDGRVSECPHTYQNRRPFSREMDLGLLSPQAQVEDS
# Protocol: as §1
# CDK2-cyclin A = CDK2-cyclin A (Homo sapiens, UniProt P24941); assay: Kinase assay (radioactive phosphate incorporation), CDK2-cyclin A; type: biochemical; conditions: read-out: Kinase Inhibition pIC50 CDK2-cyclin A (converted)
# Protocol: as §1
# Chain of GSK3b (P49841 whole entry, species assumed): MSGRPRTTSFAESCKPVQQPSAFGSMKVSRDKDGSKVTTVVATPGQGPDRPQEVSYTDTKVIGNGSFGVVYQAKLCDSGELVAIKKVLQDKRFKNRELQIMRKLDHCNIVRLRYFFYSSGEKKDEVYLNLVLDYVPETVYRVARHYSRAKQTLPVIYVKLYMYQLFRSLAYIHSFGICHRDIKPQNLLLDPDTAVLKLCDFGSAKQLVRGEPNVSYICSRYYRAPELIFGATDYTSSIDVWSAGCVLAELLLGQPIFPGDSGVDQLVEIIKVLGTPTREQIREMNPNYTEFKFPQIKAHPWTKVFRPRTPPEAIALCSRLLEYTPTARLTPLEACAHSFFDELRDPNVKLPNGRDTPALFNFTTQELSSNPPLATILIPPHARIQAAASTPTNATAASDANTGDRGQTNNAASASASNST
# Chain of CDK1-cyclin B (P06493 whole entry): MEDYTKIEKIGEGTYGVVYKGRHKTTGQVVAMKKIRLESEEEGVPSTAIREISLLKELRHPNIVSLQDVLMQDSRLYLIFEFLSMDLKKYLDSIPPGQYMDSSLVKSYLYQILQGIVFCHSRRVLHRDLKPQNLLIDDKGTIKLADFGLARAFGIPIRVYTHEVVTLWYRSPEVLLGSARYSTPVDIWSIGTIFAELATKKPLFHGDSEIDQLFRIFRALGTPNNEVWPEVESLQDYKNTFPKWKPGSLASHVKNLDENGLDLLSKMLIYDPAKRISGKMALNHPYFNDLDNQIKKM
# Chain of CDK1-cyclin B (P14635 whole entry partner): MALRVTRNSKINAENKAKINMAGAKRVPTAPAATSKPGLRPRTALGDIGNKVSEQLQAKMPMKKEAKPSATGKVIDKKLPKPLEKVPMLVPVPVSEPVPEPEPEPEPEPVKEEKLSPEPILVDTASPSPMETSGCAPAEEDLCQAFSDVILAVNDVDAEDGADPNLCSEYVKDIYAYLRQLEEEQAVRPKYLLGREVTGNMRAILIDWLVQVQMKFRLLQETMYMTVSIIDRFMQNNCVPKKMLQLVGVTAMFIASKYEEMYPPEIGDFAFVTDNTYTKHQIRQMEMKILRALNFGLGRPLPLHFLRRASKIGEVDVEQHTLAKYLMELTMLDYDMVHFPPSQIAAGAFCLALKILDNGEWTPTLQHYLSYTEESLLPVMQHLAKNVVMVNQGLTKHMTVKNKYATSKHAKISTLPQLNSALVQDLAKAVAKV
# Chain of CDK9/cyclin T1 (P50750 whole entry): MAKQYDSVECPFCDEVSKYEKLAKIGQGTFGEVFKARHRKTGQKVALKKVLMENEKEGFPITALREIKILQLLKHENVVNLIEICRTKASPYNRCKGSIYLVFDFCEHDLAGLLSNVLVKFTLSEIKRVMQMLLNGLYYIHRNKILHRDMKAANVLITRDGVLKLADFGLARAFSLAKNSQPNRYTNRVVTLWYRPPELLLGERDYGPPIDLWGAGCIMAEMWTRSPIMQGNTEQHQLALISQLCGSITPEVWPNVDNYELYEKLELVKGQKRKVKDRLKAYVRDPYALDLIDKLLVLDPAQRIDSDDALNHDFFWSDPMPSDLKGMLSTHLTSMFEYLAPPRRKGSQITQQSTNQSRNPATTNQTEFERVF
# Chain of CDK9/cyclin T1 (O60563 whole entry partner): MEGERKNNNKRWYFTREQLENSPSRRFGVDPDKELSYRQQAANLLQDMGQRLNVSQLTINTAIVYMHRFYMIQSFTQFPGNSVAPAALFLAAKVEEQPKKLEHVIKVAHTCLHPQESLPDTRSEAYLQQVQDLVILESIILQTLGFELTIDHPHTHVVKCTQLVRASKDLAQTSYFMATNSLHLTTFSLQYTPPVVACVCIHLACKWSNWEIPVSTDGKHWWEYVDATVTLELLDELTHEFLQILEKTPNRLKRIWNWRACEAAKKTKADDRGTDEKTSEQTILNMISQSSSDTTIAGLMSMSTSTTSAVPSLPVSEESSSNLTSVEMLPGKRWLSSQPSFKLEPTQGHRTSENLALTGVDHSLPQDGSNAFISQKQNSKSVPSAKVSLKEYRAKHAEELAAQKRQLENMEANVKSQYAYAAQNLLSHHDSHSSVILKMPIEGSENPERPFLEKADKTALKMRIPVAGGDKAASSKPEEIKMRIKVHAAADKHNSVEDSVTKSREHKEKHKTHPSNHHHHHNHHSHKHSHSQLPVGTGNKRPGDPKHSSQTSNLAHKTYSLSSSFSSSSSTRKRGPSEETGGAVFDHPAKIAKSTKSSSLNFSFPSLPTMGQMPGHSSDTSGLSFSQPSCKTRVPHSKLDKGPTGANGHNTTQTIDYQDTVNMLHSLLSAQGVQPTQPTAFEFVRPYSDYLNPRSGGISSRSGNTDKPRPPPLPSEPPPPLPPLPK
# Chain of CDK4-cyclin D1 (P11802 whole entry): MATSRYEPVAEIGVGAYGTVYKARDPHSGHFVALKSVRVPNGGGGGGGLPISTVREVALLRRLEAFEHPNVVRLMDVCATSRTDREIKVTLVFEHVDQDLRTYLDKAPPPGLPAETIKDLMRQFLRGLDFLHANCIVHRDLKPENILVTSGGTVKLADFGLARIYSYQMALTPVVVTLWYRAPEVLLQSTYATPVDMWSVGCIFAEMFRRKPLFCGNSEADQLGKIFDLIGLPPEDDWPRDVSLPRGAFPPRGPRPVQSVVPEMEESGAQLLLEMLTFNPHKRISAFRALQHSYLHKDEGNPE
# Chain of CDK4-cyclin D1 (P24385 whole entry partner): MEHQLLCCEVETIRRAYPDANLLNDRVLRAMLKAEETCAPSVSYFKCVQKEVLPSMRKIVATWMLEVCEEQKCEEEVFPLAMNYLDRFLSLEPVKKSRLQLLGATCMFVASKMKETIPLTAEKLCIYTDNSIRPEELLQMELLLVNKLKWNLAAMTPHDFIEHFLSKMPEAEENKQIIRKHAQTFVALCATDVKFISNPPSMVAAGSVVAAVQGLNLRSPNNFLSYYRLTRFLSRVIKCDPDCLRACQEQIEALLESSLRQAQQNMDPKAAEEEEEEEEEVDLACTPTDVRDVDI
# Chain of CDK7/cyclin H (P50613 whole entry): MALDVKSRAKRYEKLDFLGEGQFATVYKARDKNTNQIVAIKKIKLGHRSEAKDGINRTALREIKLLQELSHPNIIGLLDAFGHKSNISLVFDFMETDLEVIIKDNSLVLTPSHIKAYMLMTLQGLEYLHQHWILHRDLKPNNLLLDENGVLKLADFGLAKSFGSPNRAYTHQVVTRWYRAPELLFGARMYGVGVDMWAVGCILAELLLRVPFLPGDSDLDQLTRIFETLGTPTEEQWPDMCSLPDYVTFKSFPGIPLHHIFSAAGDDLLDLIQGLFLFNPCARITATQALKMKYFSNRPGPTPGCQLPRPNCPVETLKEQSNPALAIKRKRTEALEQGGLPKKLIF
# Chain of CDK7/cyclin H (P51946 whole entry partner): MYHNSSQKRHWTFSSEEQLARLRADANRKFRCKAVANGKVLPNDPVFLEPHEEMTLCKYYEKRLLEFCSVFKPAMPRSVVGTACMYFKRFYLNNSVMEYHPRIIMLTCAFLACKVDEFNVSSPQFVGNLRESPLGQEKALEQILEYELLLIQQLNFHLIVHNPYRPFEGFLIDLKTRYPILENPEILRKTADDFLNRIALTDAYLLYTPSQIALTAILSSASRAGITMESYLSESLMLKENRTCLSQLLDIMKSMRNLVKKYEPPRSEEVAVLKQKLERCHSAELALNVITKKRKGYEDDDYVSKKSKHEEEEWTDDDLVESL
Structure (SMILES),IC50 (GSK3b),IC50 (CDK2-cycline E),IC50 (CDK1-cyclin B),IC50 (CDK9/cyclin T1),IC50 (CDK4-cyclin D1),IC50 (CDK7/cyclin H),IC50 (Aurora A kinase),melting point,IC50 [1],IC50 (CDK2-cyclin A)
"Cc1ccc(Nc2nccc(-c3sc(NC(C)(C)C)nc3C)n2)cc1[N+](=O)[O-] [Compound 2, [4-(2-tert-Butylamino-4-methyl-thiazol-5-yl)-pyrimidin-2-yl]-(4-methyl-3-nitro-phenyl)-amine]",631 nM,1580 nM,1260 nM,316 nM,316 nM,794 nM,,,,
"Cc1nc(N)sc1-c1ccnc(Nc2cccc(S(=O)(=O)N3CCOCC3)c2)n1 [Compound 81, [4-(2-Amino-4-methyl-thiazol-5-yl)-pyrimidin-2-yl]-[3-(morpholine-4-sulfonyl)-phenyl]-amine]",25.1 nM,3160 nM,,,,6310 nM,3160 nM,215 to 216 °C,,
"CNc1nc(C)c(-c2ccnc(Nc3cccc(N4CCN(C(C)=O)CC4)c3)n2)s1 [Compound 3, 1-(4-{3-[4-(4-Methyl-2-methylamino-thiazol-5-yl)-pyrimidin-2-ylamino]-phenyl}-piperazin-1-yl)-ethanone]",5010 nM,,,,3160 nM,2000 nM,20 nM,,20 nM,
"CNc1nc(C)c(-c2ccnc(Nc3cc(OC)c(OC)c(OC)c3)n2)s1 [Compound 23, [4-(4-Methyl-2-methylamino-thiazol-5-yl)-pyrimidin-2-yl]-(3,4,5-trimethoxy-phenyl)-amine]",794 nM,,1000 nM,20 nM,2000 nM,794 nM,3.98 nM,,,
"Cc1nc(C)c(-c2ccnc(Nc3ccc(S(=O)(=O)NCc4ccccc4)cc3)n2)s1 [Compound 74, N-Benzyl-4-[4-(2,4-dimethyl-thiazol-5-yl)-pyrimidin-2-ylamino]-benzenesulfonamide]",,398 nM,,,,,126 nM,,,2000 nM
"CC(=O)N1CCN(c2cccc(Nc3nccc(-c4sc(C)nc4C)n3)c2)CC1 [Compound 46, 1-(4-{3-[4-(2,4-Dimethyl-thiazol-5-yl)-pyrimidin-2-ylamino]-phenyl}-piperazin-1-yl)-ethanone]",3160 nM,,12600 nM,1000 nM,,5010 nM,,,200 nM,
"Cc1nc(C)c(-c2ccnc(Nc3ccc(C)c(S(=O)(=O)N4CCOCC4)c3)n2)s1 [Compound 82, [4-(2,4-Dimethyl-thiazol-5-yl)-pyrimidin-2-yl]-[4-methyl-3-(morpholine-4-sulfonyl)-phenyl]-amine]",3160 nM,3980 nM,,398 nM,,3980 nM,3160 nM,81 to 83 °C,,
"CC(=O)NCc1cccc(Nc2nccc(-c3sc(-c4cccnc4)nc3C)n2)c1 [Compound 101, N-{3-[4-(4-Methyl-2-pyridin-3-yl-thiazol-5-yl)-pyrimidin-2-ylamino]-benzyl}-acetamide]",7940 nM,1260 nM,3160 nM,5010 nM,3980 nM,3980 nM,126 nM,,316 nM,

# Other lines, results leading:
IC50 (GSK3b),IC50 (CDK2-cycline E),IC50 (CDK1-cyclin B),IC50 (CDK9/cyclin T1),IC50 (CDK4-cyclin D1),IC50 (CDK7/cyclin H),IC50 (Aurora A kinase),melting point,IC50 [1],IC50 (CDK2-cyclin A),Structure (SMILES)
,63.1 nM,,,,,316 nM,,,50.1 nM,"CCNS(=O)(=O)c1ccc(Nc2nccc(-c3sc(C)nc3C)n2)cc1 [Compound 66, 4-[4-(2,4-Dimethyl-thiazol-5-yl)-pyrimidin-2-ylamino]-N-ethyl-benzenesulfonamide]"
631 nM,631 nM,1580 nM,,631 nM,,100 nM,,,,"Cc1nc(NC(C)(C)C)sc1-c1ccnc(Nc2cccc([N+](=O)[O-])c2)n1 [Compound 51, [4-(2-tert-Butylamino-4-methyl-thiazol-5-yl)-pyrimidin-2-yl]-(3-nitro-phenyl)-amine]"
1000 nM,316 nM,,39.8 nM,,6310 nM,25.1 nM,,79.4 nM,,"CNc1nc(C)c(-c2ccnc(Nc3ccc(C)c(Br)c3)n2)s1 [Compound 42, (3-Bromo-4-methyl-phenyl)-[4-(4-methyl-2-methylamino-thiazol-5-yl)-pyrimidin-2-yl]-amine]"
631 nM,100 nM,,39.8 nM,251 nM,794 nM,25.1 nM,205 to 206 °C,251 nM,,"CNc1nc(C)c(-c2ccnc(Nc3cccc(S(=O)(=O)NCCOC)c3)n2)s1 [Compound 54, N-(2-Methoxy-ethyl)-3-[4-(4-methyl-2-methylamino-thiazol-5-yl)-pyrimidin-2-ylamino]-benzenesulfonamide]"
5010 nM,,,100 nM,158 nM,,1000 nM,,,,"CCNc1nc(C)c(-c2ccnc(Nc3cccc(S(=O)(=O)NC(C)C)c3)n2)s1 [Compound 70, 3-[4-(2-Ethylamino-4-methyl-thiazol-5-yl)-pyrimidin-2-ylamino]-N-isopropyl-benzenesulfonamide]"
,79.4 nM,,6310 nM,,,,,,3160 nM,"CCOC(=O)Cc1cccc(NS(=O)(=O)c2ccc(Nc3nccc(-c4sc(NC)nc4C)n3)cc2)c1 [Compound 62, (3-{4-[4-(4-Methyl-2-methylamino-thiazol-5-yl)-pyrimidin-2-ylamino]-benzenesulfonylamino}-phenyl)-acetic acid ethyl ester]"
